Data on six compounds can be found in US6649797B2, “Compounds and methods of use to treat infectious diseases” (The Picower Institute for Medical Research, priority 1996, dated 2003).

Series [1] relates to macrophage-tropic strain of HIV-1. Briefly: Inhibition of HIV-1 replication in peripheral blood-derived macrophages (IC50, RT or p24 in medium). The format is cell-based. The conditions noted are these: Human immunodeficiency virus 1, Macrophage, 120 h; 50% inhibition of viral growth; RT or p24 in medium about day 5 or 6 post-infection. Here is the method: A quantitative measurement of the activity of the compounds of the invention to block the replication of HIV-1 in non-dividing cells can be determined by culture of a macrophage-tropic strain of HIV-1 on peripheral blood-derived macrophages. The cells are cultured for 5-6 days prior to infection in a medium consisting of DMEM supplemented with 10% type A/B human serum and 200 U/ml Macrophage Colony Stimulating Factor, with half the medium changed after 3 days, to reach a density of about 10^6 cells per 5 ml well. A macrophage-tropic viral stock may be grown on these cells. The concentration of infectious particles in the stock is estimated by measurement of p24 antigen concentration.
To test the effect of compounds of the invention on HIV-1 infection in the above-described culture system, the medium is removed and replaced with medium containing HIV-1 at a concentration of 1 ng of p24 (10^4 TCID50/ml (TCID=tissue culture infectious doses)) and a known concentration of the compound of the invention (the inhibitor). After 24 hours, the cultures are washed to remove non-adherent virus and the culture is re-fed with medium containing the inhibitor at the desired concentration. The amount of replication of HIV-1 is estimated by an assay of the reverse transcriptase activity or by an assay of the concentration of p24 antigen in the culture medium every 2-3 days throughout the post-infection period. In a preferred embodiment the anti-HIV potency of the candidate drug is measured by comparison of the concentration of reverse transcriptase (RT) or of p24 antigen in the medium of the treated and control cultures at the time of the peak of these values in non-treated control cultures, that is about day 5 or 6 post-infection. Repetition at various levels of inhibitor allows for the calculation of the concentration of inhibitor that achieves 50% inhibition of viral growth, IC50. Table I discloses the IC50 of various inhibitors.

The nature of series [2]: Pharmacokinetics in mice (plasma, HPLC). The class given is in vivo, mouse. The conditions noted are these: for Dose: calculated from clearance for target serum conc. (No. 2: 10 nM; No. 11: 50 nM; No. 15: 15 nM); for AUC / Cmax / bioavailability / Tmax: female, ND4 Swiss Webster, plasma; for Tmax: read-out: tmax (converted).
Method: Standard addition curves for each test compound were constructed by adding increased amounts of drug to mouse or human A^+ plasma (Long Island Blood Services; Melville, N.Y). […] The column was washed with 1.0 ml of water and then eluted with 1.0 ml of 10 mM tetramethylammonium chloride/10 mM heptane sulfonate/4.2 mM H3PO4/95% CH3CN/5% H2O (Buffer C). The eluted sample was reduced to dryness in a rotary evaporator and resuspended in 1.0 ml Buffer A.
Two hundred μl of the resuspended sample was injected onto a Hewlett-Packard model 1090 high performance liquid chromatography system (HPLC)(Wilmington, Del.) equipped with a photodiode array ultraviolet/visible spectrophotometric detector, autosampler, and Chemstation operating software. The column used was a 250×4.6 mm Zorbax RX-C8 column (Mac-Mod Analyticals; Chadd's Ford, Pa.) kept at room temperature and run at 1.5 ml/min. The mobile phase used was Buffer A and 10 mM tetramethylammonium chloride/10 mM heptane sulfonate/4.2 mM H3PO4/75% CH3CN/25% H2O (Buffer B), with all runs initiated at 10% Buffer B. A linear 30 min gradient to 60% Buffer B was then performed, followed by a 4 min reverse gradient to initial conditions.
Female ND4 Swiss Webster mice (21-24 g) were obtained from Harlan Sprague Dawley (Indianapolis, Ind.) and randomly placed in groups of five in cages with free access to food and water. […] The other CNI compounds were administered intraperitoneally or by oral gavage as a solution in water titrated with sufficient HCl to dissolve the drug. At various time points, ranging from 5 min to 4 days, a single group of animals was euthanized by carbon dioxide inhalation and bled by cardiac puncture using heparin as an anticoagulant. The blood from the five mice in the group was pooled and centrifuged at 14000× g for 10 min. The volume of plasma was measured, and equal volume of Buffer A added, and the mixture extracted and analyzed as described above, except that the dried eluates were resuspended in 200 μl Buffer A and 100 μl was injected onto the high performance liquid chromatography (HPLC) system.
The area under the plasma concentration-time curve (AUC) was determined, and bioavailability was measured as AUCoral/AUCi.p. A and B represent the zero time intercept of the distribution and elimination phases respectively, and a and β the respective slopes of the phases multiplied by 2.303. The t/2α and t1/2β are calculated half-lives of the drug in each phase (0.693/α and 0.693/β respectively). The volume of distribution (VD) was calculated as dose/B, and the total clearance rate (Cltot) calculated as β*VD. Cmax and tmax are the maximal plasma concentration and time of this measurement, respectively.
Series [3] in a line: Toxicity in mice, median lethal dose by intraperitoneal injection. The format is in vivo, mouse. To be noted: for LD50: mouse, in vivo, ip, read-out: LD50 ± standard deviation. Here is the method: The doses of compounds of the invention found to be lethal to 50% of the mice (LD50) were determined by intraperitoneal injection of groups of five animals with increasing doses of each compound. CNI-0294 was administered from 0, 2, 10, 20, 40, 80, 160, 320, 640, 1280 mg/kg in 0.5 ml of water/HCl; CNI-1594 at 0, 2.4, 5, 10, 20, 40, 80 mg/kg in 0.5 ml of water/HCl; CNI-1794 at 0, 20, 50, 80 mg/kg in 0.5 ml of water/HCl; and CNI-1894 at 0, 10, 20, 40, 80, 240, 480, 960 mg/kg in water/HCl. […] The percentage of animals in each group which died were utilized to calculate the LD50 by non-linear curve fitting with the Enzfit software (Elsevier Bioscience; Cambridge, UK) programmed with the Chou equation (Chou 1976, J Theor Biol 39:253-276)).

Series [4] is described as follows: In vitro metabolism with mouse liver post-mitochondrial supernatant and NADPH. The class given is in vitro ADME. The conditions noted are these: for metabolic conversion (drug altered, as judged by peak area): 60 min incubation. Here is the method:
Several female ND4 Swiss Webster mice were euthanized by carbon dioxide inhalation and the livers excised and rinsed with ice cold phosphate buffered saline (pH 7.4). The livers were minced, gently homogenized in 50 mM phosphate buffer (pH 7.4) with a Dounce homogenizer, and centrifuged at 9600× g for 20 min. The post-mitochondrial supernatant was kept, glycerol added to 20%, and frozen at −70° C in 1.0 ml aliquots until used. For each incubation, 1.0 ml of a 1.0 mg/ml drug solution was added to 3.0 ml of 50 mM phosphate buffer (pH 7.4), 1.0 ml of 2 mg/ml NADPH in 50 mM phosphate (pH 7.4), and 1.0 ml of the post-mitochondrial supernatant. Five hundred μl of each incubate was then immediately transferred to an ice-cold tube to provide the zero-time sample, and addition 500 μl aliquots removed to ice-cold tubes at 8, 15, 30, and 60 min. The samples were then extracted, and analyzed by HPLC as described in section 7.1. Control incubations were also performed where drug or post-10 mitochondrial supernatant was omitted. […] Peaks in the CNI compound incubations which increased over time, and were not present in control samples lacking the enzyme preparation were treated as putative metabolites.

The subject of another series is Plasmodium falciparum. The experiment in a line: Antimalarial activity in vitro, [3H]-hypoxanthine incorporation. The format is cell-based. To be noted: clone Dd2. From the text:
The antimalarial properties of the compounds of the invention can be analyzed by techniques, assays and experimental animal models well known in the art. For example, the inhibition of growth of Plasmodium falciparum in vitro by the compounds may be assessed by the hypoxanthine-incorporation method (Desjardins et al., 1979, Antimicrob. Ag. Chemother. 16:710-718). […] The in vivo efficacy of the compounds can also be tested in mouse models in which parasitemia is enumerated following administration of the compound (Ager, A. L. 1984, Rodent malaria models, pp 225-264. In Handbook of Experimental Pharmacology vol. 68, Antimalarial Drugs, Peters and Richards eds, Springer-Verlag, Berlin).
The antimalarial activity of the compounds was determined essentially as described in Desjardins et al. supra. Fifty μl of various concentrations of a compound of the invention, chloroquine, or pyrimethamine were added to the wells of microtiter plates, followed by 200 μl of ring-stage, synchronized, P. falciparum-infected erythrocytes (final hematocrit=1.5%, final parasitemia=1-5%). The plates were incubated for 24 hr in a candle jar kept at 37° C., and then 25 μl of [^3H]-hypoxanthine (Amersham, Arlington Heights, ILL.; 2.5 μl Ci/well) was added. The plates were then incubated for a further 24 hr, before harvesting onto Unifilter-96 GF/C filter-microplates (Packard; Meriden, Conn.). Twenty-five μl of Microscint scintillation fluid (Packard) was added to each well of the filter-microplate, which was subsequently counted in a Top-count microplate scintillation counter (Packard). The percent of [^3H]-hypoxanthine uptake relative to control infect-erythrocytes was used to determine the IC50 value for the compounds by non-linear regression for LD50 determination.

Another series deals with HIV-1. Briefly: HIV-1 production in cultured monocytes at fixed 100 nM. The class given is cell-based. To be noted: monocytes infected 10 days prior to assay (10 ng p24/10^6 cells), percentage of untreated control. Here is the method: Alternatively, the compounds may all be compared for inhibition of HIV replication at a fixed concentration. Presented in Table II are compounds that were used at a concentration of 100 nM to inhibit the production of HIV-1 in cultured monocytes infected with HIV-1 10 days prior to assay (10 ng of p24/10^6 cells). The production of HIV-1 in each treated culture is reported as percentage of untreated control.

In the next series the test system is HIV-1ADA. The experiment in a line: Anti-HIV activity in primary human monocytes, day 9 (Table IX, FIG. 12C). The format is cell-based. The conditions noted are these: Human immunodeficiency virus 1, Monocyte, 216 h; day 9 after infection; >10 μM = 50% inhibition not achieved at maximal concentration; read-out: IC50. Here is the method: Monocytes infected with HIV-1ADA were cultured in the presence of CNI-H0294 and CNI-H3094 in various concentrations. Nine days after infection, RT activity in culture supernatants was quantified. The results are presented as percent of total RT activity in untreated cultures (control). Three independent samples were assayed for each drug concentration, and the standard deviation was less than 15%.
[…] A 50% inhibitory concentration (IC50) was determined at day 9 after infection.

[5] abbreviates: mouse, ip, 50 mg/kg, vehicle water.
Where [6] appears, read: mouse, po, 50 mg/kg, vehicle water.
Where [7] appears, read: mouse, i.p., 50 mg/kg, vehicle water.
Where [8] appears, read: mouse, ip, 20 mg/kg, vehicle water.
[9] abbreviates: mouse, i.p., 20 mg/kg, vehicle water.

Structures are written as SMILES. Where a name gives a salt, the structure may show the parent alone. Read-outs that look alike come from different tables or passages of the source.

Turning to `CC(=O)c1cccc(Nc2cc(C)[n+](C)c(N)n2)c1` (as salt: iodide) [Compound No. 14, 4-(3-acetylphenyl)amino-2-amino-1,6-dimethylpyrimidinium iodide], the melting point (as a rule, the temperature of the solid-liquid transition) was 238 to 240 °C.
Regarding `CC(=O)c1cc(Nc2cc(C)nc(N)n2)cc(C(C)=O)c1` [Compound No. 11, 2-amino-4-(3,5-diacetylphenyl)amino-6-methylpyrimidine], inhibition in series [1] was half-maximal at 50 nM (IC50). Also, the Dose in series [2] is listed as 13.3 mg/Kg day. Further, in series [2] (setting [5]), the AUC (in general, concentration integrated over time) amounted to 3930 ng·h/mL and the Cmax – broadly, the maximum level reached in the sampled fluid or tissue – is 5700 ng/mL. In series [2] (mouse, oral, mice, single 50 mg/kg dose, AUCoral against AUCi.p., read-out: relative bioavailability), the bioavailability (usually the share of a dose that reaches the circulation, judged against a reference dose that is usually intravenous) worked out at 15%. Moreover, in series [2] (setting [6]), the AUC was determined as 570 ng·h/mL and the Cmax is 350 ng/mL. In addition, in series [2] (ip, mouse, i.p., 50 mg/kg, vehicle water), the Tmax – broadly, the time from dosing to the highest level – is 15 min. For the same compound, the bioavailability in series [2] (mouse, oral, 50 mg/kg, vehicle water, AUCoral/AUCi.p., read-out: Bioavailability) worked out at 15%. In addition, the Tmax in series [2] (mouse, oral, 50 mg/kg, vehicle water) is 15 min. This compound registered a maximal plasma level in series [2] (mice, oral, single 50 mg/kg dose) of 0.35 µg/mL. Further, in series [2] (setting [7]), the “A (zero time intercept of the distribution phase)” value amounted to 5.22 µg/mL, the “B (zero time intercept of the elimination phase)” value is 0.14 µg/mL, the Cltot was 16.50 mL/min and the VD worked out at 5.21 L. In series [2] (setting [7]), this compound yielded a t1/2α of 22.8 min, a t1/2β of 219 min, a α of 1.83 h⁻¹ and a β of 0.19 h⁻¹. For the same compound, in series [3], the “visible signs of toxicity” value is “well tolerated” and the LD50 (in general, the dose at which mortality reaches 50%) is greater than 160 mg/kg. In series [4], the metabolites produced result was “three minor and one major metabolite”; the “metabolic conversion (drug altered, as judged by peak area)” value worked out at 65.19%. The “less active than CNI-0294” value in the series on Plasmodium falciparum is given as “approximately 5 fold”.
Regarding `CC(=O)c1cc(NC(=N)NC(=N)N)cc(C(C)=O)c1.Cl` [Compound No. 12, N-(3,5-diacetylphenyl)biguanide hydrochloride], the melting point was 260 to 270 °C (dec.). In addition, the “Viral Production” value in the series on HIV-1 is reported as 12%.
For `CC(=O)c1cc(Nc2nc(N)nc(N)n2)cc(C(C)=O)c1` [Compound No. 13, 2-(3,5-diacetylphenyl)amino-4,6-diamino-1,3,5-triazine] the same measures were 271 to 272 °C and 14%.
Take `CC(=O)c1cccc(Nc2cc(C)[n+](C)c(N)n2)c1` [Compound No. 14, 4-(3-acetylphenyl)amino-2-amino-1,6-dimethylpyrimidinium iodide]: the IC50 (usually the concentration needed to halve the response being measured) in series [1] is 10 nM; with HIV-1ADA, 1000 nM.
Compound `CC(=O)c1cccc(Nc2cc(C)nc(N)n2)c1` [Compound No. 15, 4-(3-acetylphenyl)amino-2-amino-6-methylpyrimidine] displayed an IC50 in series [1] of 15 nM. Moreover, in series [2], the Dose is on record as 5.70 mg/Kg day. Also, in series [2] (setting [8]), the AUC is 820 ng·h/mL and the concentration peaked (Cmax) at 1930 ng/mL. Moreover, in series [2] (ip, mouse, i.p., 20 mg/kg, vehicle water), the Tmax is 15 min. In addition, in series [2] (setting [9]), the “A (zero time intercept of the distribution phase)” value stood at 1.10 µg/mL, the “B (zero time intercept of the elimination phase)” value came out at 0.01 µg/mL, the Cltot turned out to be 26.40 mL/min and the t1/2α came out at 19.2 min. In series [2] (setting [9]), this compound gave a t1/2β of 1040 min, a α of 2.14 h⁻¹ and a β of 0.04 h⁻¹. For the same compound, in series [3], the “visible signs of toxicity” value was “death occurring in minutes and the animals displaying signs of acute neurotoxicity”; the LD50 was determined as 49.04 ± 0.08 mg/kg. Moreover, in series [4], the metabolites produced result is “three minor and one major metabolite”; the “metabolic conversion (drug altered, as judged by peak area)” value came to 11.74%.
